Holding throughout (assay type): cell-based, mouse
Data set [1] deals with ARG1 mRNA expression in RAW 264.7 cells. Description: qRT-PCR of ARG1 mRNA in IL-4/IL-13-stimulated RAW 264.7 cells. The following applies: 12 h, mean ± SD; for mrna remaining at 10 µM: RAW264.7, IL-4/IL-13 (20 ng/mL) plus compound 10 μM; for mrna remaining at 10 µM / ARG1 mRNA Relative Expression (%): stimulated control = 100%; for ARG1 mRNA Relative Expression (%): IL-4/IL-13 (20 ng/mL) plus compound 10 μM. From the text:
(§1) We first investigated the impacts of a series of commercially available natural pseudolaric acids or their O-pyranosides (Figure 1) on the pro-tumoral phenotype of TAMs, which play a critical role in anti-tumor immune response modulation. […] In contrast, M1-biased macrophages combat tumor growth and bacterial infections by expressing inducible nitric oxide synthase 2 (NOS2), which catalyzes the production of nitric oxide (NO). Recognizing the pivotal roles of ARG1 and NOS2, we utilized these molecules as key biomarkers and effectors for assessing macrophage immune function. In our experiments, the mouse monocyte–macrophage leukemia cell line RAW 264.7 was induced with IL-4/IL-13 to acquire an M2-like pro-tumoral phenotype. Concurrently, the cells were treated with the pseudolaric acid-related natural products 1–7 at a concentration of 10 μM for 12 h. Additionally, PLX3397 was used as a positive control at a concentration of 0.5 μM. […] As shown in Table 1 and Figure S1A, pseudolaric acid B (1), its deacetoxyl analogue 2 (pseudolaric acid C), and β-D-glucoside 7 substantially attenuated the upregulation of ARG1 mRNA expression induced by IL-4/IL-13, with statistically significant effects. In contrast, bis-carboxylic acids analogs 4 (pseudolaric acid C2) and 6 (demethoxydeacetoxypseudolaric acid B) have no significant impact on ARG1 mRNA expression.
(§2) With these carboxylic acid-modified derivatives in hand, we investigated their impact at 10 μM on ARG1 and NOS2 mRNA expression in RAW 264.7 cells pre-stimulated with IL-4/IL-13 to evaluate the effects on the pro-tumor phenotype of macrophages. […] Further removal of one hydroxyl from the glycerol moiety 15 further enhanced the inhibitory effect on ARG1 expression but had no significant impact on NOS2 expression.
(§3) Total RNA was isolated from cells using the EZ-press RNA Purification Kit (EZBioscience, Suzhou, China) and subjected to reverse transcription with the 5×HiScript II qRT SuperMix II (Vazyme, Nanjing, China). PCR was performed with the 2×ChamQ Universal SYBR qPCR Master Mix (Vazyme, Nanjing, China). All primers for qRT-PCR are described in Table S1. The 2^−∆∆Ct method was utilized to calculate the fold change in gene expression, with the expression levels in the stimulated group set as the baseline for normalization.

Data set [2] has as its system NOS2 mRNA expression in RAW 264.7 cells. Put plainly: qRT-PCR of NOS2 mRNA in IL-4/IL-13-stimulated RAW 264.7 cells. Conditions: 12 h, mean ± SD; for activity at 10 µM: RAW264.7, IL-4/IL-13 (20 ng/mL) plus compound 10 μM; for activity at 10 µM / NOS2 mRNA Relative Expression (%): stimulated control = 100%; for NOS2 mRNA Relative Expression (%): IL-4/IL-13 (20 ng/mL) plus compound 10 μM.
Excerpt: as §1, §2, §3

Another data set relates to Raw264.7 cells. Put plainly: Cell viability (CCK-8) of RAW264.7 cells. The following applies: IL-4/IL-13 plus compound 10 μM, 12 h. The procedure:
Cells were seeded in 96-well tissue culture plates. On the next day, cells were exposed to various concentrations of compounds and further cultured for the indicated period. Finally, cell proliferation was determined by using the Cell Counting Kit (CCK-8) (Dojindo, Kumamoto, Japan) assay.
Figure S2. Effects of natural pseudolaric acids 1-4, 6 and their O-pyranosides 5, 7 as well as the derivatives 8-18 o f 1 on Raw264.7 cell viability. Raw264.7 cells were treated with IL-4/IL-13 alone or combined with indicated compounds (10 μM) for 12 h. After incubation, the cell viability was determined using a cell counting kit (CCK-8, Dojindo, Japan) assay.
(1 picture or pasted object on this page, not shown here)

[3] abbreviates: Mus musculus, read-out: ARG1 mRNA Relative Expression (%).
The mark [4] stands for this setting: Mus musculus, read-out: NOS2 mRNA Relative Expression (%).

With `FC(F)(F)c1ccc(CNc2ccc(Cc3c[nH]c4ncc(Cl)cc34)cn2)cn1` [PLX3397, reference compound], the mrna remaining at 0.5 µM in data set [1] (Mus musculus, RAW264.7, IL-4/IL-13 (20 ng/mL) plus positive control 0.5 μM, read-out: ARG1 mRNA Relative Expression (%)) turned out to be 3.2 ± 2.4%. Moreover, the activity at 0.5 µM in data set [2] (Mus musculus, RAW264.7, IL-4/IL-13 (20 ng/mL) plus positive control 0.5 μM, read-out: NOS2 mRNA Relative Expression (%)) was found to be 193 ± 10.2%.
Regarding `COC(=O)C1=CC[C@@]23CC[C@@H]([C@@](C)(/C=C/C=C(\C)C(=O)O)OC2=O)[C@@]3(O)CC1` [compound 2, pseudolaric acid C, reference compound], in data set [1] (setting [3]), the mrna remaining at 10 µM was 17.3 ± 9.1%. Also, the activity at 10 µM in data set [2] (setting [4]) amounted to 80.1 ± 15.6%.
With `CC(=O)O[C@]12CCC(C)=CC[C@]13CC[C@H]2[C@@](C)(/C=C/C=C(\C)C(=O)O)OC3=O` [compound 3, pseudolaric acid A, reference compound], the mrna remaining at 10 µM in data set [1] (setting [3]) came out at 343 ± 27.9%. In addition, in data set [2] (setting [4]), the activity at 10 µM came out at 297 ± 6.8%.
The like results for `CC(=O)O[C@]12CCC(C(=O)O)=CC[C@]13CC[C@H]2[C@@](C)(/C=C/C=C(\C)C(=O)O)OC3=O` [compound 4, pseudolaric acid C2, reference compound] were, in that order, 87.4 ± 25.4% and 131 ± 14.5%.
The like results for `CC(=O)O[C@]12CCC(C)=CC[C@]13CC[C@H]2[C@@](C)(/C=C/C=C(\C)C(=O)O[C@@H]1O[C@H](CO)[C@@H](O)[C@H](O)[C@H]1O)OC3=O` [compound 5, reference compound] were, in that order, 16.2 ± 9.2% and 158 ± 17.2%.
Turning to `COC(=O)C1=CC[C@@]23CC[C@@H]([C@@](C)(/C=C/C=C(\C)C(=O)O[C@@H]4O[C@H](CO)[C@@H](O)[C@H](O)[C@H]4O)OC2=O)[C@@]3(OC(C)=O)CC1` [compound 7, reference compound], the mrna remaining at 10 µM in data set [1] (setting [3]) was found to be 21.2 ± 13%. Further, the activity at 10 µM in data set [2] (setting [4]) stood at 307 ± 36.2%. In addition, in the data set on Raw264.7 cells, the cell viability result is recorded as “only a minimal reduction in cell viability”.
Regarding `COC(=O)C1=CC[C@@]23CC[C@@H]([C@@](C)(/C=C/C=C(\C)C(=O)NCC(F)(F)F)OC2=O)[C@@]3(OC(C)=O)CC1` [compound 9, Methyl (3R,4S,4aS,9aR)-4a-acetoxy-3-methyl-3-((1E,3E)-4-methyl-5-oxo-5-((2,2,2-trifluoroethyl)amino)penta-1,3-dien-1-yl)-1-oxo-3,4,4a,5,6,9-hexahydro-1H-4,9a-ethanocyclohepta[c]pyran-7-carboxylate], in data set [1] (setting [3]), the mrna remaining at 10 µM was determined as 7.4%. The “NOS2 mRNA Relative Expression (%)” value in data set [2] is given as 148.7 ± 14.1%. Further, in data set [2] (setting [4]), the activity at 10 µM worked out at 149%.
On to `COC(=O)C1=CC[C@@]23CC[C@@H]([C@@](C)(/C=C/C=C(\C)C(=O)NCC(C)O)OC2=O)[C@@]3(OC(C)=O)CC1` (stereo partly drawn) [compound 10, Methyl(3R,4S,4aS,9aR)-4a-acetoxy-3-((1E,3E)-5-((2-hydroxypropyl)amino)-4-methyl-5-oxopenta-1,3-dien-1-yl)-3-methyl-1-oxo-3,4,4a,5,6,9-hexahydro-1H-4,9a-ethanocyclohepta[c]pyran-7-carboxylate], for which, in data set [1] (setting [3]), the mrna remaining at 10 µM was 7.5%. For the same molecule, the activity at 10 µM in data set [2] (setting [4]) was determined as 103 ± 7.2%.
Take `COC(=O)C1=CC[C@@]23CC[C@@H]([C@@](C)(/C=C/C=C(\C)C(=O)NCCN(CCO)CCO)OC2=O)[C@@]3(OC(C)=O)CC1` [compound 13, Methyl(3R,4S,4aS,9aR)-4a-acetoxy-3-((1E,3E)-5-((2-(bis(2-hydroxyethyl)amino)ethyl)amino)-4-methyl-5-oxopenta-1,3-dien-1-yl)-3-methyl-1-oxo-3,4,4a,5,6,9-hexahydro-1H-4,9a-ethanocyclohepta[c]pyran-7-carboxylate]: the mrna remaining at 10 µM in data set [1] (setting [3]) is 72.2 ± 10.2%. The activity at 10 µM in data set [2] (setting [4]) amounted to 134 ± 5%.
The like results for `COC(=O)C1=CC[C@@]23CC[C@@H]([C@@](C)(/C=C/C=C(\C)C(=O)NC(CO)(CO)CO)OC2=O)[C@@]3(OC(C)=O)CC1` [compound 14, Methyl(3R,4S,4aS,9aR)-4a-acetoxy-3-((1E,3E)-5-((1,3-dihydroxy-2-(hydroxymethyl)propan-2-yl)amino)-4-methyl-5-oxopenta-1,3-dien-1-yl)-3-methyl-1-oxo-3,4,4a,5,6,9-hexahydro-1H-4,9a-ethanocyclohepta[c]pyran-7-carboxylate] were, in that order, 42.2 ± 9.5% and 136 ± 8%.
Turning to `COC(=O)C1=CC[C@@]23CC[C@@H]([C@@](C)(/C=C/C=C(\C)C(=O)OC4O[C@H](COC(C)=O)[C@@H](OC(C)=O)C(OC(C)=O)[C@H]4OC(C)=O)OC2=O)[C@@]3(OC(C)=O)CC1` (stereo partly drawn) [compound 16, (3R,5R,6R)-2-(((2E,4E)-5-((3R,4S,4aS,9aR)-4a-Acetoxy-7-(methoxycarbonyl)-3-methyl-1-oxo-3,4,4a,5,6,9-hexahydro-1H-4,9a-ethanocyclohepta[c]pyran-3-yl)-2-methylpenta-2,4-dienoyl)oxy)-6-(acetoxymethyl)tetrahydro-2H-pyran-3,4,5-triyl triacetate], the mrna remaining at 10 µM in data set [1] (setting [3]) worked out at 80 ± 27.5%. The activity at 10 µM in data set [2] (setting [4]) was 95.2 ± 23%.
`COC(=O)C1=CC[C@@]23CC[C@@H]([C@@](C)(/C=C/C=C(\C)C(=O)O[C@H]4OC[C@@H](OC(C)=O)[C@H](OC(C)=O)[C@H]4OC(C)=O)OC2=O)[C@@]3(OC(C)=O)CC1` [compound 17, (2R,3R,4S,5R)-2-(((2E,4E)-5-((3R,4S,4aS,9aR)-4a-Acetoxy-7-(methoxycarbonyl)-3-methyl-1-oxo-3,4,4a,5,6,9-hexahydro-1H-4,9a-ethanocyclohepta[c]pyran-3-yl)-2-methylpenta-2,4-dienoyl)oxy)tetrahydro-2H-pyran-3,4,5-triyl triacetate]: the mrna remaining at 10 µM in data set [1] (setting [3]) was determined as 32.3 ± 19.2%. Moreover, in data set [2] (setting [4]), the activity at 10 µM is 91.3 ± 6.9%.
With “(2E,4E)-5-((3R,4S,4aS,9aR)-4a-acetoxy-7-(methoxycarbonyl)-3-methyl-1-oxo-3,4,4a,5,6,9-hexahydro-1H-4,9a-ethanocyclohepta[c]pyran-3-yl)-2-methylpenta-2,4-dienoic acid [compound 15]”, the “ARG1 mRNA Relative Expression (%)” value in data set [1] is on record as 18.7 ± 18.0%. Besides, the “NOS2 mRNA Relative Expression (%)” value in data set [2] was determined as 130.3 ± 5.8%.
The like results for “(2R,3S,4S,5R,6R)-6-(((2E,4E)-5-((3R,4S,4aS,9aR)-4a-Acetoxy-7-(methoxycarbonyl)-3-methyl-1-oxo-3,4,4a,5,6,9-hexahydro-1H-4,9a-ethanocyclohepta[c]pyran-3-yl)-2-methylpenta-2,4-dienoyl)oxy)tetrahydro-2H-pyran-2,3,4,5-tetrayl tetraacetate [compound 18]” were, in that order, 42.6 ± 30.2% and 58.7 ± 4.5%.

The record behind these values is PMC12114375, “Discovery of Hydrazineyl Amide Derivative of Pseudolaric Acid B for Reprogramming Tumor-Associated Macrophages Against Tumor Growth” (Molecules, 2025).
